Results reported in US9822157B2 (priority 2013, dated 2017).
Read-outs that look alike come from different tables or passages of the source.

Tests used:
[1] = Stability in human serum (LC-MS); format: in vitro ADME; conditions: 10 μM peptide, 37 degrees C, up to 24 hours
Experimental: Serum stability experiments were undertaken to complement the in vivo results and assist in the design of potent, stable Ferroportin agonists. In order to predict the stability in humans, ex vivo stability studies were initially performed in human serum.
Samples were taken at various time points up to 24 hours. The samples were separated from serum proteins and analysed for the presence of the peptide of interest using LC-MS. The amount of intact peptide in each sample was calculated using the analyte peak area in relation to the zero time point.
(§1) The peptides were also tested for other pharmacokinetic/pharmacodynamic (PK/PD) parameters using methods commonly know by the skilled artisan. These parameters included determinations regarding stability (hours stable in plasma from the indicated human or rat subject), half-life in mice, and in vitro activity (EC50), tested as described in Example 2.

human ferroportin = biological target: T1, human ferroportin (Homo sapiens, UniProt Q9NP59); format: cell-based
T1 sequence (Q9NP59 1-571): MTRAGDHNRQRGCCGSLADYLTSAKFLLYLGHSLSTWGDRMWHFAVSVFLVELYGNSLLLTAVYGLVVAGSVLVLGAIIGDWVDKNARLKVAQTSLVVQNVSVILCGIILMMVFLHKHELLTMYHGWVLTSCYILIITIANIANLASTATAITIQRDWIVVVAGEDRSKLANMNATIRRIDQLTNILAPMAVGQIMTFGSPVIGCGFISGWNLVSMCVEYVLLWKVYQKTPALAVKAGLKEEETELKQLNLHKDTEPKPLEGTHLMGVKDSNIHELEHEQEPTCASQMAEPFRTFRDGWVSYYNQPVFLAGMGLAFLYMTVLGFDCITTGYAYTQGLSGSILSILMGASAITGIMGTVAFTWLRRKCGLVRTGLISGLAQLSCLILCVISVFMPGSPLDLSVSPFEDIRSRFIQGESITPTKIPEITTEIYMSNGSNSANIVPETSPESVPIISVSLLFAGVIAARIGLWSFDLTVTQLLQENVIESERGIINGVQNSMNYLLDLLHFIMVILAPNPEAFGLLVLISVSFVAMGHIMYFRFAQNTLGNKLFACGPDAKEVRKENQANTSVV
Description: The cDNA encoding the human ferroportin (SLC40A1) was cloned from a cDNA clone from Origene (NM_014585). The DNA encoding the ferroportin was amplified by PCR using primers also encoding terminal restriction sites for subcloning, but without the termination codon. The ferroportin receptor was subcloned into a mammalian GFP expression vector containing a neomycin (G418) resistance marker in such that the reading frame of the ferroportin was fused in frame with the GFP protein. The fidelity of the DNA encoding the protein was confirmed by DNA sequencing. HEK293 cells were used for transfection of the ferroportin-GFP receptor expression plasmid. The cells were grown according to standard protocol in growth medium and transfected with the plasmids using Lipofectamine (manufacturer's protocol, Invitrogen). […] The cells were propagated and frozen in aliquots.
A retro inverse peptide is a peptide with a reversed sequence in all D amino acids. […] The EC50 of these reference compounds for ferroportin degradation was determined according to the activity assay described above.

serum iron [2] = experiment: Reduction of free plasma iron in rats (serum iron after i.p. dosing); format: in vivo, Sprague-Dawley rats; conditions: IP dosing, FIGS. 2 and 3
Experimental: At Day 1, the animals were monitored for free Fe^2+ in serum. In order to reach a homogenous serum level, Fe^2+ was analyzed and a homogenous cohort of 7 or 8 animals randomized to each treatment group. At Day 2, an acute experiment where the animals were subjected to i.p. dosing of test compound and subsequent tail vein blood samples. Prior to dosing, the animals were put under a heating lamp for 3-5 minutes. Blood samples were drawn from the tail vein from all animals in order to determine serum iron levels prior to vehicle or compound dosing. Animals were dosed i.p. with 1 ml of test substance in vehicle or just vehicle and blood samples of 250 μl was drawn from each animal at t=0, 60, 120, 240, 360 min and 24 hours in the study of the reference compound. The dose response study performed with Retro Inverse (RI) mini-Hepcidin (Reference compound), and the efficacy study performed with Compound No. 2 were performed as two separate experiments. […]
Male Sprague-Dawley rats weighing 200-250 g were used in the study. […] Humane endpoints were applied, according to OECD's “Guidelines for Endpoints in Animal Study Proposals.” The animals were monitored daily.
Iron content in plasma/serum is measured for iron content using a colorimetric assay on the Cobas c 111 according to instructions from the manufacturer of the assay (assay: IRON2: ACN 661). […]

serum iron [3] = experiment: In vivo serum iron reduction in mice; parameters: species or system mice (C57-BL6); conditions: s.c., tested in rats or in mice
Experimental: Instead of rats, mice (C57-BL6) were tested.
A similar experiment was performed with lower doses to assess the dose response of these compounds for inducing serum iron reduction. Methods were as described above in this Example, except for the following parameters: n=4 mice/group, however n=8 for the vehicle, as two groups were pooled. Mice were administered test compounds at two separate dosages (300 nmol/kg or 1000 nmol/kg), via subcutaneous injection. Serum iron levels were assessed as in Example 8 two hours after peptide or vehicle injection. […] Moreover, it was clear that several of the compounds were able to induce maximum effects at dosages as low as 300 nmol/kg.
The route of peptide administration was via subcutaneous injection, unless otherwise indicated as having been via intraperitoneal injection (this is noted on the table by “i.p.” in parentheses following the “yes” or “no” determination).
as §1

serum iron [4] = experiment: In vivo serum iron reduction in mice; parameters: species or system mice (C57-BL6); conditions: C57BL6 mice, time course, FIG. 6
[5] = Hepcidin analog peptides, read-out: Potency EC50
[6] = read-out: EC50 (nM) (n > 3), alanine scan of Compound 18

| Substance | t½ [1] [h] | EC50 (human ferroportin; [5]) [nM] | EC50 (human ferroportin; [6]) [nM] | serum iron level (serum iron [2]) | In Vivo Activity (s.c.) 300 nmol/kg (serum iron [3]) | serum iron, PK/PD effects (serum iron [4]) | In Vivo Activity (s.c.) 1000 nmol/kg (serum iron [3]) |
| --- | --- | --- | --- | --- | --- | --- | --- |
| H-DTHFPICIFGPRSKGWACM-NH2 (cysteine pairing not given here) [Compound 47] | ~40 | 313 | 313 | – | – | – | – |
| H-DTHFPICIFGPRSKGWVCM-NH2 (cysteine pairing not given here) [Compound 18] | 2.32 | 125 | 125 | – | – | – | – |
| Hy-DPhe-DIle-DCys-DIle-DPro-DPhe-DHis-DThr-DAsp-NH2 [RI-Mini Hepcidin, reference compound] | – | – | – | in neither case significant | – | – | – |
| Isovaleric acid-DTHFPCIKFEPRSKGWVCK-NH2 [Compound 181] | – | – | – | – | Yes | a rapid decrease in serum iron, which was transient | – |
| Isovaleric acid-DTHFPCIKFGPRSKGWVC-K(PEG8)-NH2 [Compound 153] | – | – | – | – | Yes | sustained | Yes |
| Isovaleric acid-DTHFPICIFGPRSKGWVC-NH2 [Compound 2] | – | – | – | a decrease in serum iron level that was comparable to that observed after injection of the positive control | Yes | – | Yes |
